Counter-ions that a name gives are not always drawn. Numbered stars: 1 amine (or outer) side, 2 acyl side, 3 side chain; on linkers, the order of the positions; unused ones are H or OH. Bridge positions count the residues as written; N and C are the ends. Square brackets hold non-standard residues; d marks the D form. Peptide text beside a SMILES is read from it. * marks the point of attachment. pTerphenylCO(4''-OnC5H11) = CCCCCOc1ccc(-c2ccc(-c3ccc(C(=O)*)cc3)cc2)cc1; Orn(4R-OH,5R-OH) = O=C([C@H](C[C@@H](O)[C@@H](O)N[*:3])N[*:1])[*:2]; hTyr(3S-OH,4S-OH) = N[C@H](C(=O)O)[C@H](O)[C@@H](O)c1ccc(O)cc1; Pro(3S-OH,4S-Me) = C[C@H]1CN[C@H](C(=O)O)[C@H]1O; Hyp = O=C(O)[C@@H]1C[C@@H](O)CN1

Usually %inhibition stands for the percentage by which the read-out fell short of the control. The inhibition is the change of the read-out against control, counted positive when it falls.

In one test the target is SARS-CoV-2 Mac1 (Severe acute respiratory syndrome coronavirus 2, UniProt P0DTD1). The test is described as follows: biochemical. Particulars: 100 µM; inhibitor.
With `Nc1nc2[nH]cc(CCc3ccc(C(=O)N[C@@H](CCC(=O)O)C(=O)O)cc3)c2c(=O)[nH]1` [Pemetrexed], the “%inhibition” value is listed as 4.612%.
Turning to `CCN(CC)C(=S)SSC(=S)N(CC)CC` [Disulfiram], the “%inhibition” value was 0%.
As to `CC1(C)S[C@@H]2[C@H](NC(=O)[C@H](N)c3ccccc3)C(=O)N2[C@H]1C(=O)O` [Ampicillin Trihydrate], the “%inhibition” value is 20.11%.
`CC1(C)S[C@@H]2[C@H](NC(=O)[C@H](N)c3ccc(O)cc3)C(=O)N2[C@H]1C(=O)O` [Amoxicillin]: the “%inhibition” value is 9.546%.
With `CN(C/C=C/C#CC(C)(C)C)Cc1cccc2ccccc12` [Terbinafine], the “%inhibition” value turned out to be 49.96%.
Turning to `CC(C)N(CCC(C(N)=O)(c1ccccc1)c1ccccn1)C(C)C` (centres unmarked) [Disopyramide], the “%inhibition” value worked out at 8.31%.
Same read-out and setting: the figure for `Cc1cc(NS(=O)(=O)c2ccc(N)cc2)no1` [Sulfamethoxazole] is 24.84%.

Still in this test, the particulars now being: read-out: %inhibition.
Take `CCCC(CCC)C(=O)O[C@H]1C[C@H]2CC[C@@H](C1)[N+]2(C)C` [Anisotropine Methylbromide]: the inhibition at 100 µM amounted to 5.8%.
Turning to `CC(C)Cn1cnc2c(N)nc3ccccc3c21` [Imiquimod], the inhibition at 100 µM stood at 26.3%.
Turning to `CO[C@H]1C[C@@H]2CC[C@@H](C)[C@@](O)(O2)C(=O)C(=O)N2CCCC[C@H]2C(=O)O[C@H]([C@H](C)C[C@@H]2CC[C@@H](OC(=O)C(C)(CO)CO)[C@H](OC)C2)CC(=O)[C@H](C)/C=C(\C)[C@@H](O)[C@@H](OC)C(=O)[C@H](C)C[C@H](C)/C=C/C=C/C=C/1C` [Temsirolimus (CCI-779, NSC 683864)], the inhibition at 100 µM was 14.6%.
Turning to `CC(CCc1ccccc1)NCC(O)c1ccc(O)c(C(N)=O)c1` (centres unmarked) [Labetalol HCl], the inhibition at 100 µM turned out to be 0%.
Take `C[C@H]1CNCCCN1S(=O)(=O)c1cccc2cncc(F)c12` [Ripasudil (K-115) hydrochloride dihydrate]: the inhibition at 100 µM came to 23.9%.
On to `CC(C)c1c(C(=O)Nc2ccccc2)c(-c2ccccc2)c(-c2ccc(F)cc2)n1CC[C@@H](O)C[C@@H](O)CC(=O)O` [Atorvastatin Calcium], for which the inhibition at 100 µM was 0%.
As for `Cc1nc(-c2ccc(OCC(C)C)c(C#N)c2)sc1C(=O)O` [Febuxostat], the inhibition at 100 µM turned out to be 4.8%.
Regarding `CC(C)C(=O)Oc1ccc(CO)cc1[C@H](CCN(C(C)C)C(C)C)c1ccccc1` [Fesoterodine Fumarate], the inhibition at 100 µM worked out at 0%.
On to `C[C@@H]1C[C@H]2[C@@H]3CCC4=CC(=O)C=C[C@]4(C)[C@@]3(Cl)[C@@H](O)C[C@]2(C)[C@@]1(OC(=O)c1ccco1)C(=O)CCl` [Mometasone furoate], for which the inhibition at 100 µM came out at 7.49%.
As for `CC1Cc2ccccc2N1NC(=O)c1ccc(Cl)c(S(N)(=O)=O)c1` (centres unmarked) [Indapamide], the inhibition at 100 µM is 36.3%.
Same read-out and setting: to `CO/N=C(\C(=O)N[C@@H]1C(=O)N2C(C(=O)O)=C(Cn3ccc(=N)n3CCO)CS[C@H]12)c1csc(N)n1` [Cefoselis Sulfate] belongs 22.8%.
Turning to `Oc1c(Cl)cc(Cl)c(Cl)c1Cc1c(O)c(Cl)cc(Cl)c1Cl` [Hexachlorophene], the inhibition at 100 µM is 0%.
On to `O=C(O)CCNC(=O)c1ccc(/N=N/c2ccc(O)c(C(=O)O)c2)cc1` [Balsalazide disodium], for which the inhibition at 100 µM worked out at 0%.
Consider `Cc1c(NC(=O)c2cccnc2)c(=O)n(-c2ccccc2)n1C` [Nifenazone], for which the inhibition at 100 µM turned out to be 3.55%.
Turning to `CS(=O)(=O)c1ccc([C@@H](O)[C@@H](CO)NC(=O)C(Cl)Cl)cc1` [Thiamphenicol], the inhibition at 100 µM worked out at 13.4%.
The same measure, in the same setting: the figure for `CN1CCC(COc2cnc(-c3cccc(Cn4nc(-c5cccc(C#N)c5)ccc4=O)c3)nc2)CC1` [Tepotinib (EMD 1214063)] is 0%; for `CCn1cc(C(=O)O)c(=O)c2cc(F)c(N3CCNC(C)C3)c(F)c21` (centres unmarked) [Lomefloxacin] it is 0%; for `Cn1ncc(Cl)c1-c1cc(C(=O)N[C@H](CN)Cc2cccc(F)c2)sc1Cl` [Afuresertib (GSK2110183)] it is 0%.
On the same count and under the same terms, the figure for `CC(C(O)c1ccc(O)cc1)N1CCC(Cc2ccccc2)CC1` (centres unmarked) [Ifenprodil Tartrate] is 34.6%.
Same read-out and setting: to `CCOc1nc2cccc(C(=O)O)c2n1Cc1ccc(-c2ccccc2-c2noc(=O)[nH]2)cc1` [Azilsartan] belongs 16.1%; to `CCOC(N)=O` [Urethane], 0%; to `O=C(O)CCC(=O)O` [Sodium succinate], 0%.
As to `NC(=O)[C@@H]1CC[C@@H]2CN1C(=O)N2OS(=O)(=O)O` [Avibactam sodium], the inhibition at 100 µM was 0%.
For `CCCCCN(C)CCC(O)(P(=O)(O)O)P(=O)(O)O` [Ibandronate sodium], the inhibition at 100 µM stood at 4.37%.
In the case of `CCCCCCCCCCCCCCCC[N+](C)(C)C` [Cetrimonium Bromide (CTAB)], the inhibition at 100 µM stood at 25.1%.
On the same count and under the same terms, to `Cc1cn([C@@H]2C[C@@H](O)[C@H](CO)O2)c(=O)[nH]c1=O` [Telbivudine] belongs 0%.
As to `CC(C)C[C@H](NC(=O)[C@@H](NC(=O)c1cccc(-c2ccccc2)n1)[C@@H](C)O)B(O)O` [Delanzomib (CEP-18770)], the inhibition at 100 µM is 0%.
As for `NC(=O)CN1CCCC1=O` [Piracetam], the inhibition at 100 µM was determined as 9.88%.
For `NCC(=O)CCC(=O)O` [5-Aminolevulinic acid HCl], the inhibition at 100 µM turned out to be 7.12%.
As for `C[C@H]1O[C@@H](O[C@H]2[C@@H](O)C[C@H](O[C@H]3[C@@H](O)C[C@H](O[C@H]4CC[C@@]5(C)[C@H](CC[C@@H]6[C@@H]5C[C@@H](O)[C@]5(C)[C@@H](C7=CC(=O)OC7)CC[C@]65O)C4)O[C@@H]3C)O[C@@H]2C)C[C@H](O)[C@@H]1O` [Digoxin], the inhibition at 100 µM was 13.2%.
Same read-out and setting: to `CC1(C)S[C@@H]2[C@H](NC(=O)COc3ccccc3)C(=O)N2[C@H]1C(=O)O` [Penicillin V potassium salt] belongs 0%.
For `CCCCCOc1ccc(-c2ccc(-c3ccc(C(=O)N[C@H]4C[C@@H](O)[C@@H](O)NC(=O)[C@@H]5[C@@H](O)[C@@H](C)CN5C(=O)[C@H]([C@@H](C)O)NC(=O)[C@H]([C@H](O)[C@@H](O)c5ccc(O)cc5)NC(=O)[C@@H]5C[C@@H](O)CN5C(=O)[C@H]([C@@H](C)O)NC4=O)cc3)cc2)cc1` [Anidulafungin (LY303366)] ({pTerphenylCO(4''-OnC5H11)}-[Orn(4R-OH,5R-OH)]T[Hyp][hTyr(3S-OH,4S-OH)]T[Pro(3S-OH,4S-Me)]; lactam 1-C), the inhibition at 100 µM stood at 6.34%.
Consider `COc1cc(Cc2cnc(N)nc2N)cc(OC)c1OC` [Trimethoprim], for which the inhibition at 100 µM came to 4.05%.
For the compound `O=C(c1ccccc1)c1ccc2n1CCC2C(=O)O` (centres unmarked) [Ketorolac], the inhibition at 100 µM was 11.8%.
With `O=C1CC[C@@]2(O)[C@H]3Cc4ccc(O)c5c4[C@@]2(CCN3CC2CC2)[C@H]1O5` [Naltrexone HCl], the inhibition at 100 µM worked out at 0%.
For `Nc1nnc(-c2cccc(Cl)c2Cl)c(N)n1` [Lamotrigine], the inhibition at 100 µM worked out at 12.3%.
As to `NS(=O)(=O)c1cc2c(cc1Cl)N=CNS2(=O)=O` [Chlorothiazide], the inhibition at 100 µM was 0%.
Consider `CC(=O)CC/C=C(\C)CC/C=C(\C)CC/C=C(\C)CCC=C(C)C` [Teprenone], for which the inhibition at 100 µM came out at 30.7%.
Take `C[N+](C)(C)C[C@H](O)CC(=O)[O-]` [L-carnitine]: the inhibition at 100 µM worked out at 3.55%.
As to `NS(=O)(=O)c1ccc(C(=O)O)cc1` [Carzenide], the inhibition at 100 µM stood at 0%.

Values taken from publication doi:10.1101/2021.10.07.463234v2 (biorxiv, 2021).
